According to patent US20250281596A1, “IONIZABLE CATIONIC COMPOUND” (priority 2021, published 2025):

Columns and labels:
BHK-21 cells = assay: In vitro potency: transfection of BHK-21 cells, 96-well imaging (Cytation 5); type: cell-based; settings: LNPs encapsulating saRNA expressing H5 and N1, FIG. 3
Experimental: For LNPs prepared with SL16, SL17, SL18, and SL21, a similar assay was performed in a 96-well plate using BHK-21 cells and analysed using a Cytation 5 Cell Imaging Multimode Reader (Agilent). The results of this assay were analysed in the same way as described for the flow cytometry assay, except only an H5-antibody was used for detection. In vitro transfection potency was determined for LNPs containing lipids SL16, SL17, SL18, and SL21. […] SL16 LNP, SL17 LNP, and SL18 LNP were formulated using a flow-rate ratio of 2:1. SL17 LNP2, SL18 LNP2, and SL21 were formulated using a flow-rate ratio of 3:1 (FIG. 3).

physchem = type: physicochemical; settings: saRNA-LNP with the lipid; TNS, pH 4 to 9.5, 25° C.; read-out: Apparent pKa
Experimental: In a black 96-well plate, solutions of saRNA-LNP (final assay concentration 2 μg/mL total RNA) in a series of buffers ranging from pH 4 to 9.5 were prepared. Buffers between pH 4 to 7.6 were prepared from disodium phosphate and citric acid. Buffers from 7.8 to 9.5 were prepared by titrating tris buffer with 10 N sodium hydroxide. To each well was added 6-(p-Toluidino)-2-naphthalenesulfonic acid sodium salt (TNS) in water to a final assay concentration of 6 μM. The fluorescence was read on a plate reader at 25° C. with an excitation setting of 321 nm and an emission setting of 445 nm. The intensity values were plotted as a function of pH using GraphPad Prism and were fit with a sigmoidal dose response curve. The apparent pKa was determined as the EC50 of this curve where half of the ionizable amines are expected to be protonated (see FIG. 1).

| Structure (SMILES) | Ability to transfect cells (H5-antibody detection) (BHK-21 cells) | pKa (physchem) |
| --- | --- | --- |
| CCCCCCCCCC(CCCCCCCCC(=O)OCC(CCCC)CCCCCC)OC(=O)CC1CCN(CCCO)CC1 (stereo not drawn) [SL17] | able to transfect BHK-21 cells in vitro |  |
| CCCCCCCCCC(CCCCCCCCC(=O)OCC(CCCC)CCCCCC)OC(=O)CC1CCN(C)CC1 (stereo not drawn) [SL14] |  | 6.63 |
| CCCCCCCCCC(CCCCCCCCC(=O)OCC(CCCC)CCCCCC)OC(=O)CCC1CCN(CCCO)CC1 (stereo not drawn) [SL18] | able to transfect BHK-21 cells in vitro |  |
| CCCCCCCCCC(CCCCCCCCOC(=O)CC(CCCC)CCCCCC)OC(=O)CC1CCN(CCCO)CC1 (stereo not drawn) [SL21] | able to transfect BHK-21 cells in vitro |  |
| CCCCCCCCCC(CCCCCCCCC(=O)OCC(CCCC)CCCCCC)OC(=O)C1CCN(CCCO)CC1 (stereo not drawn) [SL16] | able to transfect BHK-21 cells in vitro |  |
| CCCCCCCCCC(CCCCCCCCC(=O)OCC(CCCC)CCCCCC)OC(=O)CCC1CCN(C)CC1 (stereo not drawn) [SL15] |  | 7.13 |
